System: Magensekretion
Experiment: Gastric secretion in pylorus-ligated conscious female rats after oral dosing
Assay type: in vivo, Ratten (Stamm: Charles River CD)
Details: for Säure gesamt / Säurekonzentration / Menge: pylorus ligation 60 min after dosing; for Säure gesamt / Säurekonzentration: measured 4 h after ligation; for Menge: stomach content measured 4 h after ligation; for Hemmung der Magensekretion: result in words, increasing oral doses of 125, 250 and 500 µmol/kg
Protocol: Die Substanzen wurden in 20 %-igem Dimethylsulfoxid gelöst und wachen weiblichen Ratten - (Stamm: Charles River CD) in ansteigenden Dosen von 125, 250 und 500 µmol/kg mit dem einheitlichen Dosierungsvolumen von 20 ml/kg oral appliziert. 60 Minuten später wurden die Tiere einer Pylorusligatur unterzogen. 4 Stunden nach Setzen der Pylorusligatur wurde die Säurekonzentration und der Gesamtsäuregehalt im Magenvolumen der Tiere bestimmt. Die Kontrollgruppe erhielt 20 ml/kg Dimethylsulfoxid bzw. 20 ml/kg destilliertes Wasser.

**Q.** With `COc1ccnc(C[S+]([O-])c2nc3ccsc3[nH]2)c1` (centres unmarked) [Verbindung B] as the compound, how does the Säure gesamt (125 µmol/kg oral) read?
**A.** 0.37±0.07 mÄq

**Q.** What about the Säurekonzentration (125 µmol/kg oral) of the same compound?
**A.** 0.08±0.007 mÄq/ml

**Q.** And the Menge (125 µmol/kg oral)?
**A.** 4.5 ± 0.6 mL

**Q.** What about the Säure gesamt (250 µmol/kg oral) of the same compound?
**A.** 0.27±0.05 mÄq

**Q.** And the Säurekonzentration (250 µmol/kg oral)?
**A.** 0.05±0.004 mÄq/ml

**Q.** What about the Menge (250 µmol/kg oral) of the same compound?
**A.** 5.0 ± 0.6 mL

**Q.** And the Säure gesamt (500 µmol/kg oral)?
**A.** 0.14±0.02 mÄq

**Q.** And the Säurekonzentration (500 µmol/kg oral)?
**A.** 0.03±0.004 mÄq/ml

**Q.** What about the Menge (500 µmol/kg oral) of the same compound?
**A.** 4.5 ± 0.4 mL

**Q.** What about the “Hemmung der Magensekretion” value of the same compound?
**A.** signifikante, dosisabhängige Hemmung der Magensekretion

**Q.** For `COc1c(C)cnc(C[S+]([O-])c2nc3cc(C(C)=O)sc3[nH]2)c1C` (centres unmarked) [Verbindung A, 5-Acetyl-2-((4-methoxy-3,5-dimethyl-2-pyridyl)-methylsulfinyl)-3H-thieno(2,3-d)imidazol], which Säure gesamt (125 µmol/kg oral) is on record?
**A.** 0.37±0.06 mÄq

**Q.** And the Säurekonzentration (125 µmol/kg oral)?
**A.** 0.08±0.008 mÄq/ml

**Q.** What about the Menge (125 µmol/kg oral) of the same compound?
**A.** 4.7 ± 0.4 mL

**Q.** And the Säure gesamt (250 µmol/kg oral)?
**A.** 0.16±0.03 mÄq

**Q.** And the Säurekonzentration (250 µmol/kg oral)?
**A.** 0.04±0.006 mÄq/ml

**Q.** And the Menge (250 µmol/kg oral)?
**A.** 3.4 ± 0.3 mL

**Q.** And the Säure gesamt (500 µmol/kg oral)?
**A.** 0.13±0.03 mÄq

**Q.** And the Säurekonzentration (500 µmol/kg oral)?
**A.** 0.04±0.005 mÄq/ml

**Q.** What about the Menge (500 µmol/kg oral) of the same compound?
**A.** 3.1 ± 0.4 mL

**Q.** What about the “Hemmung der Magensekretion” value of the same compound?
**A.** signifikante, dosisabhängige Hemmung der Magensekretion
